The values that follow come from patent US20150203474A1, “SOLID FORMS COMPRISING INHIBITORS OF HCV NS5A, COMPOSITIONS THEREOF, AND USES THEREWITH” (PRESIDIO PHARMACEUTICALS ,INC., priority 2012, published 2015).

In brackets after ≈: the same amount, converted by molar mass. Where two headings read alike, the source gives them in different places.

In general, solubility refers to the concentration that dissolves in the medium under given conditions.

Series [1] is described as follows: PK study of Form I of Compound II in monkeys. Format: in vivo. Particulars: PO dose of 75 mg/kg; for concentration at 0.083 h / concentration at 0.25 h / concentration at 0.5 hr / concentration at 1 hr / concentration at 2 hr / concentration at 4 hr / concentration at 6 hr / concentration at 8 hr / concentration at 24 h: male, cynomolgus monkey, plasma, po, 75 mg/kg. The protocol: The pharmacokinetics (PK) properties of Form A of Compound I and Form I of Compound II were determined in a series of comprehensive experiments in preclinical species including Sprague-Dawley rats, beagle dogs, cynomolgus monkeys. In those studies, the Form A crystalline salt of Compound I (and Form I crystalline salt of Compound II) was formulated in saline, 0.5% MC in saline or other commonly used suitable formulation vehicles to give a clear solution or as a suspension or a paste depending on the concentration intended to reach and the choice of vehicles. Dosing was by oral gavage. Blood samples were drawn and placed into individual tube containing K2EDTA. Blood samples were put on ice and centrifuged (2000 g for 5 minutes at 4° C.) to obtain plasma within 15 minutes after collection. Plasma samples were stored at approximately −80° C. freezer until analysis. For most of these analyses, Compound I (and Compound II) and the internal standard (IS) were extracted from rat, monkey or dog plasma by protein precipitation, and the extract was evaporated, reconstituted and analyzed using HPLC with tandem mass spectrometric detection (HPLC-MS/MS), see examples for further details. Calibration was accomplished by weighted linear regression of the ratio of the peak area of analyte to that of the added internal standard (IS). For the validated assay in rat and monkey EDTA plasma, the Lower Limit of Quantitation (LLOQ) for both compound 1 and 2 was 5.00 ng/mL, and the assay was linear from 5.00-1,000 ng/mL. PK parameters were calculated by non-compartmental analysis using WinNonlin (versions 4.1 through 6.1). Non-naïve Cynomolgus monkeys, 3.2-3.5 kg, male Dosing solution was prepared by dissolving 682.96 mg of Form I of Compound II in 82.558 mL of 0.5% MC in saline, vortexing for 5 min and sonicating for 18 min to obtain a homogenous solution. The above solution was given to the animals at 10 mL/kg via intragastric administration To collect blood samples, the animals were restrained manually and approx. 0.6-1 mL blood/time point was collected from cephalic or sephanous veins into pre-cooled EDTA tubes. Blood samples were put on ice and centrifuged at 4° C. to obtain plasma within 30 minutes of sample collection. Plasma samples were stored at −70° C. until analysis. • Instrument LC-MS/MS (API4000) • MS conditions Positive ion, EST • HPLC conditions Mobile Phase A: H2O—0.025% formic acid—1 mM NH4OAc • Mobile Phase B: MeOH—0.025% formic acid—1 mM NH4OAc • Column: Boston Crest ODS-C18 (2.1×50 mm, 5 μm) • Flow rate: 0.40 mL/min • Compound II retention time: 2.30 min; • IS retention time: 2.29 min • Sample preparation An aliquot of 20 μL plasma sample was protein precipitated with […] which contains 5 ng/mL IS (P1100970-1). The mixture was vortexed for 2 min, and then centrifuged at 12000 rpm for 5 min. an aliquot of 5 μL supernatant was injected onto the LC-MS/MS system.

Series [2] in a line: Moisture sorption profile (DVS) of Compound II Form I and amorphous Compound II. Format: physicochemical. Conditions: DVS at 25° C. The protocol: The moisture sorption profile was generated of the sample as well as of a sample of amorphous Compound II at 25° C. using a DVS Moisture Balance Flow System (Model Advantage) with the following conditions: sample size approximately 10 mg, drying 25° C. for 60 minutes, adsorption range 0% to 95% RH, desorption range 95% to 0% RH, and step interval 5%. The equilibrium criterion was <0.01% weight change in 5 minutes for a maximum of 120 minutes.

A short description of series [3]: Solubility of Form A (aliquot addition / slurry, visual). The class given is physicochemical. The method, then:
Aliquots of various solvents were added to measured amounts of Form A with agitation (typically sonication) at ambient or elevated temperatures until completedissolution was achieved, as judged by visual observation. […] Samples were left to slurry at ambient and elevated temperatures for several days; however, no further dissolution was observed.

Where [4] appears, read: #0610703, read-out: plasma concentration.
Where [5] appears, read: #0612169, read-out: plasma concentration.
Setting [6] is: Mean, read-out: mean plasma concentration.

On to `CC[C@H](C)[C@H](NC(=O)OC)C(=O)N1CCC[C@H]1c1nc2ccc(-c3ccc4cc(-c5cnc([C@@H]6CCCN6C(=O)[C@@H](NC(=O)OC)[C@@H](C)OC)[nH]5)ccc4c3)cc2[nH]1` [Form I of Compound II], for which the plasma concentration result in series [1] (Cynomolgus monkeys, 0.083 hr, #0610703) is “BQL”. In addition, the concentration at 0.083 h in series [1] (0.083 hr, #0612169, read-out: plasma concentration) was 8.33 ng/mL. For the same compound, in series [1] (0.083 hr, Mean, read-out: mean plasma concentration), the concentration at 0.083 h is 8.33 ng/mL. For the same compound, in series [1] (setting [4]), the concentration at 0.25 h came to 33.3 ng/mL, the concentration at 0.5 hr is 207 ng/mL, the concentration at 1 hr was 497 ng/mL and the concentration at 2 hr came to 336 ng/mL. Moreover, in series [1] (setting [4]), the concentration at 4 hr was 213 ng/mL, the concentration at 6 hr was 110 ng/mL, the concentration at 8 hr stood at 55.9 ng/mL and the concentration at 24 h was 8.79 ng/mL. In series [1] (setting [5]), the concentration at 0.25 h came to 86.8 ng/mL, the concentration at 0.5 hr is 273 ng/mL, the concentration at 1 hr is 1140 ng/mL and the concentration at 2 hr is 954 ng/mL. In addition, in series [1] (setting [5]), the concentration at 4 hr is 435 ng/mL, the concentration at 6 hr stood at 194 ng/mL, the concentration at 8 hr was determined as 93.1 ng/mL and the concentration at 24 h was determined as 7.37 ng/mL. In addition, in series [1] (setting [6]), the concentration at 0.25 h was found to be 60.1 ng/mL, the concentration at 0.5 hr is 240 ng/mL, the concentration at 1 hr was found to be 819 ng/mL and the concentration at 2 hr was found to be 645 ng/mL. Moreover, in series [1] (setting [6]), the concentration at 4 hr came out at 324 ng/mL, the concentration at 6 hr came out at 152 ng/mL, the concentration at 8 hr is 74.5 ng/mL and the concentration at 24 h was found to be 8.08 ng/mL. Further, the “Hygroscopicity (in words)” value in series [2] (0-75% RH) is given as “medium hygroscopic”. Further, the “Water absorption at high RH (in words)” value in series [2] (~85% RH and above) is on record as “absorbed water very quickly”. The “weight percentage change (water uptake) from 0-75% RH” value in series [2] (listed as Compound II Form I) is reported as 4.34%.

With `COC(=O)N[C@H](C(=O)N1CCC[C@H]1c1ncc(-c2ccc3cc(-c4ccc5nc([C@@H]6CCCN6C(=O)[C@@H](NC(=O)OC)C(C)C)[nH]c5c4)ccc3c2)[nH]1)C(C)C` [Form A of Compound I], the “Solubility estimate (in words)” value in series [3] (IPA and IPA/MTBE (2/1 (v/v)) mixtures at ambient and elevated temperatures, aliquot addition) is recorded as “poorly soluble”. In addition, the solubility in series [3] (IPA/water (95/5 v/v), organic solvent or mixture, thermodynamic from solid, IPA:H2O (95:5), RT, aliquot addition) was 33000 µg/mL (≈ 43.3 mM); in series [3] (organic solvent or mixture, thermodynamic from solid, IPA, RT, aliquot addition), less than 3000 µg/mL; in series [3] (organic solvent or mixture, thermodynamic from solid, IPA, ~60° C., aliquot addition), 2000 µg/mL (≈ 2.62 mM); in series [3] (organic solvent or mixture, thermodynamic from solid, IPA:tBME (2:1), RT, aliquot addition), less than 2000 µg/mL; in series [3] (organic solvent or mixture, thermodynamic from solid, IPA:tBME (2:1), ~60° C., aliquot addition), less than 3000 µg/mL. Besides, the solubility at 4 days in series [3] (organic solvent or mixture, thermodynamic from solid, IPA, RT, slurry, 4 days) was less than 3000 µg/mL. For the same compound, the solubility at 6 days in series [3] (organic solvent or mixture, thermodynamic from solid, IPA, ~60° C., slurry, 6 days) is less than 6000 µg/mL. Besides, the solubility at 3 days is less than 2000 µg/mL in series [3] (organic solvent or mixture, thermodynamic from solid, IPA:tBME (2:1), RT, slurry) and less than 3000 µg/mL in series [3] (organic solvent or mixture, thermodynamic from solid, IPA:tBME (2:1), ~60° C., slurry).
